From patent US8440212B2, “Compositions for treating water systems” (Arch Chemicals, Inc., priority 2009, dated 2013)
Where two headings read alike, the source gives them in different places.

Assays:
[1] = system: wild mustard algae (Schwab strain)
Description: (§1) Efficacy of zinc ions (in the form of zinc sulfate) was evaluated using two strains of very difficult to control wild mustard algae, both isolated from a pool treated with BAQUACIL (Arch Chemicals, Norwalk, CT). All experiments were conducted in 125 ml Erlenmeyer flasks that contained 50 ml of Jaworski's medium. To increase the surface area in the flasks each flask also contained 50 6 mm glass beads. The tests flasks were illuminated using a combination incandescent and fluorescent plant grow lights with 16 hours of illumination and 8 hours of darkness. Temperature was maintained at 80° F+/−5° F. The flasks were grown without agitation or additional aeration. One ml of a pooled mid-log culture was used to used to inoculate the test flasks to an initial optical density of 95%T. This yields an initial concentration of approximately […] algae per ml. Efficacy was evaluated in the presence and absence of a sub-optimal concentration of a primary sanitizer (PHMB). Growth was measured optically at 450 nm using a 1 inch cell in a Spectronic 20. All experiments used five replicates. The results of the optical readings were arithmetically averaged. […] In FIGS. 1 and 2, PHMB concentrations were held at 4 PPM, and zinc ion concentration was varied from 0 to 3 PPM. Growth over time was measured and plotted.

[2] = system: wild mustard algae (Miami strain)
Description: as §1

[3] = system: Chlorella pyrenoidosa, Pleurochloris pyrenoidosa and Phormidium sp.; details: FIG. 4
Description: This study was conducted in test pools without bathers. The water was initially balanced and proper water balance was maintained throughout the study. Each pool was inoculated weekly with mixed bacterial, fungal and algal cultures. The algae inoculations were prepared using the methodology below.
Algal cultures were maintained in 5 liter carboys at 22° C. under fluorescent light with a 12 hour on/off cycle. Air is continuously bubbled through the medium. Stock cultures of Chlorella pyrenoidosa and Pleurochloris pyrenoidosa are maintained in Kratz & Meyers medium and Phormidium sp., a filamentous blue-green alga, is maintained in BG-11.
150 milliliters of a combined inoculum containing equal amounts of each strain is added weekly per 10,000 gallons of water. Typically the cultures contain approximately 2×10^7 cells per milliliter; therefore approximately 2×10^9 cells are added per pool each week. However, if time allows, determine the actual number of algae in each sample by heamocytometry, using a Neubauer heamocytometer. Each pool was chemically treated using the procedure below.
A. Test Pool 7: Baquacil CDX +Didecyl dimethyl ammonium chloride (DDAC) • 1. […]
Observations were taken on a business daily basis and the pool was scored using the following 0-4 scale. • 0=no trace of algae • 1=trace amounts • 2=small patches • 3=large patches • 4=sides and bottom more than 25% covered by algae

[4] = 2 or 3 ppm zinc ions, PHMB 4 PPM

## O=S(=O)([O-])[O-].[Zn+2] [zinc sulfate]
[1]; [4]
  reduction of algal growth: approximately 50%
[1]; FIG. 1, PHMB held at 4 PPM, zinc ion 0 to 3 PPM, growth measured optically at 450 nm
  algaestatic activity: moderate algaestatic activity
[2]; [4]
  reduction of algal growth: approximately 50%
[2]; FIG. 2, PHMB held at 4 PPM, zinc ion 0 to 3 PPM, growth measured optically at 450 nm
  algaestatic activity: moderate algaestatic activity
[3]; Test Pool 7: Baquacil CDX + DDAC, single 4.2 ppm dosage of zinc sulfate (1.5 PPM zinc) after 102 days
  algaestatic performance (visual algae score 0-4): improved algaestatic performance
[3]; Test Pool 8: Baquacil CDX control, 4.2 ppm dosages of zinc sulfate (1.5 PPM zinc) after 33, 40 and 61 days
  algaestatic performance (visual algae score 0-4): improved algaestatic performance
